{"source": "patent US9623063B2", "about": "“Extracts from Ajuga reptans cell lines, their preparation and use” (I.R.B. ISTITUTO DI RICERCHE BIOTECNOLOGICHE S.r.l., priority 2005, dated 2017)", "key": {"platelets": {"test_system": "platelets", "experiment": "ADP induced platelet aggregation-disaggregation in platelet rich plasma", "format": "cell-based, rabbit", "details": "for Control disaggregation: 10 minutes after ADP; for Control disaggregation / Control aggregation / Latency period: Mean ± SD (n = 6); for Control aggregation: ADP 10 μM", "experimental": "Platelet enriched rabbit plasma has been used to assess the platelet anti-aggregating and disaggregating properties of Ajuga reptans Extracts compared with teupolioside and isoteupolioside. Platelet rich plasma has been obtained from rabbit venous blood by mixing it with a 3.8% sodium citrate solution (9:1 v/v). The solution has then been centrifuged at 460×g for 20 minutes. The supernatant has been collected and immediately used for the aggregation assays. Platelet aggregation has been recorded using a Chronolog “Ionised calcium platelet aggregometer” (Chrono-log Co., USA). All measurements have been performed at 37° C. with continuous stirring. One milliliter of the platelet suspension (in the presence or absence of the test substances) has been added to the cuvettes and incubated for five minutes to equilibrate the cells to 37° C. Then 10 μl of a solution of ADP (final concentration—10 μM) has been added and the luminous transmittance continuously recorded. The results are expressed as the DT/DTK ratio, where DTK and DT are the luminous transmittance values, in the absence and presence of extract respectively.\nPlatelet disaggregation (the disappearance of pre-formed aggregates) has been determined using the same luminous transmittance curve 10 minutes following the addition of ADP. The results are expressed as the DR/DRk ratio, where DRk and DR, are the luminous transmittance in the absence and presence of extract. The test substances, diluted in physiological solution (isotonic saline) (pH 7.4) are pre-incubated with the platelet rich plasma (1:10 v/v) for 5-40 minutes. The aggregation measurements have then been performed. Physiological solution carrier has been added to the control samples (1:10 v/v)."}, "[1]": {"biological_target": "T1, 5 alpha reductase, type I (Homo sapiens, UniProt P18405)", "T1 construct": "made in house; host or cells: genetically modified yeast", "T1 sequence (P18405 1-259)": "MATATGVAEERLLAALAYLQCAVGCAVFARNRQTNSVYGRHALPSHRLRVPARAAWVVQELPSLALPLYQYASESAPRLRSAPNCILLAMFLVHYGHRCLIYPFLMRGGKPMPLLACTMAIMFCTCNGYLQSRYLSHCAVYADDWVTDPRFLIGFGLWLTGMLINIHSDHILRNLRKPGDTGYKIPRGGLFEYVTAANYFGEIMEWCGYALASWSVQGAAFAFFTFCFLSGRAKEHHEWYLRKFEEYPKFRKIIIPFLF", "experiment": "Type I 5 alpha reductase inhibition ([14C] testosterone conversion)", "format": "biochemical", "experimental": "(§1) Determination of the 5 alpha reductase inhibitory activities by Ajuga reptans extracts in comparison to Serenoa repens extracts. Said determination has been performed using enzymes (5 alpha reductase, type I and type II) produced by genetically modified yeast. Enzyme activities have been determined in the presence of Ajuga reptans extracts, teupolioside, isoteupolioside and Serenoa repens extracts.\nType I 5 alpha reductase activity has been assayed by incubating the enzyme in 0.1 M Tris-citrate buffer (pH 7.0), containing 5 μM [^14C] radio-labelled testosterone (Amersham, Sweden) and 5 mM NADPH (Sigma) in a final volume of 5 ml. The solution thus obtained has been incubated for 1 hour at 37° C.\n(§2) In both assays, the steroids have been extracted using 5 ml of methylene chloride. The extracts have then been dried under a stream of nitrogen and the dried residues obtained have been dissolved in 20 μl of a chloroform-methanol mixture (2:1 v/v). […] For quantification of the results, the spots have been scraped from the TLC plate and extracted with 2 ml of ethyl acetate. The extracts obtained have been analysed, using scintillation fluid, with the aid of a Wallach β-counter. The enzyme activity has been calculated from the percentage conversion (C %) of the substrate into final product: C%=[counted product/(counted substrate+product)]×100."}, "[2]": {"experiment": "Metal chelation, spectrophotometric (Fe2+)", "format": "physicochemical", "description": "(§3) The chelating activities of Ajuga reptans extracts in relation to Fe^2+, Fe^3+, Cu^2+ and Ni^2+ metal ions has been determined by means of spectrophotometric measurements using a Shimadzu 1770 UV spectrophotometer. The activities of chelating agents depends on the association constant (equilibrium) of their reactions with the metals according to the following reaction:\n(§4) [formula] wherein Keq is the equilibrium constant equal to the ratio of concentrations at equilibrium of a complex and a product of equilibrium concentrations of metal ions and a chelator:\n(§5) The method used for determining chelating activities is well documented in the literature (Korkina L G, Afarras'er I B. Antioxidant and chelating properties of flavonoids. Adv. Pharmacol., 1997, 38:151-63). The results are expressed as Keq (M^−1) calculated for a pure phenylpropanoid. This way the chelating activity against ferrous (Fe II), ferric (Fe III), copper (Cu II) and nickel ions has been calculated."}, "[3]": {"biological_target": "T2, 5 alpha reductase, type II (Homo sapiens, UniProt P31213)", "T2 construct": "made in house; host or cells: genetically modified yeast", "T2 sequence (P31213 1-254)": "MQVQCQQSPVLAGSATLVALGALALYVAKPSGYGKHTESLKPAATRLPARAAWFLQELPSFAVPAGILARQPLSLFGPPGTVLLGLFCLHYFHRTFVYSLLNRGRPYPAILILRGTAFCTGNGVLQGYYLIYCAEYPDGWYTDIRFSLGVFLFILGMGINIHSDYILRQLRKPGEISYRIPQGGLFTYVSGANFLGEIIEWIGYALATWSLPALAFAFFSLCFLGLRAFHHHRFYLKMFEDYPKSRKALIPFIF", "experiment": "Type II 5 alpha reductase inhibition ([14C] testosterone conversion)", "format": "biochemical", "description": "as §1\nDetermination of the type II 5 alpha reductase activity has been performed in an analogous manner to that just described, with the exception of a different pH value for the 0.1 M Tris-citrate buffer (pH 5.0).\nas §2, with “v/v). An aliquot of said mixture has been deposited on the surface of a silica gel TLC plate.” for “v/v).”"}, "[4]": {"experiment": "Metal chelation, spectrophotometric (Ni2+)", "format": "physicochemical", "description": "as §3, §4, §5"}, "[5]": {"experiment": "Metal chelation, spectrophotometric (Fe3+)", "format": "physicochemical", "description": "as §3, §4, §5"}, "[6]": {"details": "calculated for a pure phenylpropanoid"}}, "note": "Like-named read-outs stand apart in the source and are kept apart here.", "data": [{"smiles": "CC1OC(OC2C(O)C(COC(=O)C=Cc3ccc(O)c(O)c3)OC(OCCc3ccc(O)c(O)c3)C2O)C(OC2OC(CO)C(O)C(O)C2O)C(O)C1O", "note": "(stereo not drawn) [Isoteupolioside, isoteupolioside]", "values": [{"measurement": "Platelet disaggregation test, activity in words", "setting": "platelets", "result": "activity similar to teupolioside"}, {"measurement": "IC50", "setting": "[1]", "result": 20.3, "unit": "µM"}, {"measurement": "Fe^2+ (Keq, M^−1)", "setting": "[2]", "result": "340000 ± 10000", "unit": "M⁻¹"}, {"measurement": "IC50", "setting": "[3]", "result": 33, "unit": "µM"}, {"measurement": "Ni^2+ (Keq, M^−1)", "setting": "[4]", "result": "2631 ± 373", "unit": "M⁻¹"}, {"measurement": "Fe^3+ (Keq, M^−1)", "setting": "[5]", "result": "420000 ± 110000", "unit": "M⁻¹"}]}, {"smiles": "C[C@@H]1O[C@@H](O[C@@H]2[C@@H](O)[C@H](OCCc3ccc(O)c(O)c3)O[C@H](CO)[C@H]2OC(=O)/C=C/c2ccc(O)c(O)c2)[C@H](O[C@@H]2O[C@H](CO)[C@H](O)[C@H](O)[C@H]2O)[C@H](O)[C@H]1O", "note": "[Teupolioside, teupolioside]", "values": [{"measurement": "Effect on platelet aggregation, in words", "setting": "platelets", "result": "modest inhibiting effect on platelet aggregation, only at 1 mg/ml concentration"}, {"measurement": "Control disaggregation", "setting": "platelets; 0.001 mg/ml", "result": "105 ± 5"}, {"measurement": "Control aggregation", "setting": "platelets; 0.001 mg/ml", "result": "121 ± 6"}, {"measurement": "Latency period", "setting": "platelets; 0.001 mg/ml", "result": "101 ± 3"}, {"measurement": "Control disaggregation", "setting": "platelets; 0.01 mg/ml", "result": "113 ± 10"}, {"measurement": "Control aggregation", "setting": "platelets; 0.01 mg/ml", "result": "110 ± 10"}, {"measurement": "Latency period", "setting": "platelets; 0.01 mg/ml", "result": "95 ± 5"}, {"measurement": "Control disaggregation", "setting": "platelets; 0.1 mg/ml", "result": "124 ± 15"}, {"measurement": "Control aggregation", "setting": "platelets; 0.1 mg/ml", "result": "114 ± 10"}, {"measurement": "Latency period", "setting": "platelets; 0.1 mg/ml", "result": "94 ± 4"}, {"measurement": "Control disaggregation", "setting": "platelets; 1.0 mg/ml", "result": "100 ± 10"}, {"measurement": "Control aggregation", "setting": "platelets; 1.0 mg/ml", "result": "68 ± 9"}, {"measurement": "Latency period", "setting": "platelets; 1.0 mg/ml", "result": "66 ± 10"}, {"measurement": "IC50", "setting": "[1]; first column of Table 9, pH 7.0, 5 μM testosterone, read-out: Type I 5 alpha reductase inhibition (IC50) (converted)", "result": 21.6, "unit": "µM"}, {"measurement": "Fe^2+ (Keq, M^−1)", "setting": "[2]; [6]", "result": "350000 ± 20000", "unit": "M⁻¹"}, {"measurement": "IC50", "setting": "[3]; second column of Table 9, pH 5.0, 5 μM testosterone, read-out: Type II 5 alpha reductase inhibition (IC50) (converted)", "result": 30.5, "unit": "µM"}, {"measurement": "Ni^2+ (Keq, M^−1)", "setting": "[4]; [6]", "result": "2658 ± 365", "unit": "M⁻¹"}, {"measurement": "Fe^3+ (Keq, M^−1)", "setting": "[5]; [6]", "result": "430000 ± 90000", "unit": "M⁻¹"}]}]}
